# Assay results as given in US10618901B2 (GlaxoSmithKline Intellectual Property Development Limited, priority 2014, dated 2020).
# Biological target: T1, LRRK2 Ser935 phosphorylation in SH-SY5Y cells over-expressing recombinant full length LRRK2 (Homo sapiens, UniProt Q5S007)
# T1 construct: A BacMam virus expressing full length recombinant LRRK2 was purchased from Invitrogen; host or cells: SH-SY5Y (BacMam transduction)
# Assay: Recombinant cellular LRRK2 AlphaScreen assay
# Assay type: cell-based
# Details: read-out: pIC50 in the recombinant cellular LRRK2 alphaScreen assay (converted)
# Description: Recombinant Cellular LRRK2 AlphaScreen Assay
# To determine the activity of compounds against LRRK2 kinase activity in cells, the observed LRRK2 kinase-dependent modulation of LRRK2 Ser 935 phosphorylation (Dzamko et al., 2010, Biochem. J. 430: 405-413) was utilized to develop a quantitative 384 well plate-based immunoassay of LRRK2 Ser935 phosphorylation in the human neuroblastoma cell line SH-SY5Y, engineered to over-express recombinant full length LRRK2 protein.
# A BacMam virus expressing full length recombinant LRRK2 was purchased from Invitrogen and amplified by inoculation of SF-9 cells at MOI 0.3 for 4-5 days in Sf-900 III SFM medium supplemented with 3% fetal bovine serum. Infected cell cultures were then centrifuged at 2000 g for 20 minutes, viral supernatant titer determined by anti-gp64 plaque assay and stored at 4° C.
# Affinity-purified anti-phospho LRRK2 Ser935 sheep polyclonal antibody (Dzamko et al., 2010, Biochem. J. 430: 405-413) was biotinylated by standard methods (PerkinElmer). Anti-LRRK2 rabbit polyclonal antibody was purchased from Novus Biologicals. AlphaScreen Protein A IgG Kit (including acceptor and donor beads) was purchased from Perkin Elmer.
# SH-SY5Y cells were grown in DMEM/F12 medium with 10% dialysed fetal bovine serum and harvested by treatment with 0.5% trypsin-EDTA for 5 minutes at 37° C. followed by centrifugation at 1000 rpm for 4 minutes. The cell pellet was resuspended in Opti-MEM reduced serum media (Invitrogen) at 200,000 cells/ml and mixed with the BacMam LRRK2 virus at M01=50. 50 μl cell solutions were then dispensed to each well of a 384-well plate and incubated at 37° C., 5% CO2 for 24 hours.
# Serial dilutions of test compounds were prepared in Opti-MEM reduced serum media (Invitrogen) and 5.6 ul transferred from compound plate to cell assay plate to achieve a top final assay concentration of 10 uM. DMSO was used in certain wells as controls. Cells were incubated at 37° C., 5% CO2 for 60 minutes. The medium was then removed and cells lysed by addition of 20 ul cell lysis buffer (Cell Signaling Technology) and incubation at 4° C. for 20 minutes. 10 ul of antibody/acceptor bead mix [(1/1000 biotinylated-pS935 LRRK2 antibody, 1/1000 total-LRRK2 antibody, 1/100 Acceptor beads in AlphaScreen detection buffer (25 mM Hepes (pH 7.4), 0.5% Triton X-100, 1 mg/ml Dextran 500 and 0.1% BSA)] was then added to each well and plates incubated for 2 hours at ambient temperature in the dark. 10 μl of donor beads solution (1/33.3 donor beads in AlphaScreen detection buffer) was then added to each well. Following incubation for a further 2 hours at ambient temperature in the dark, plates were read on an EnVision™ plate reader at emission 520-620 nm with excitation 680 nm. Dose response curve data was based on sigmoidal dose-response model.
# T1 sequence (Q5S007 whole entry): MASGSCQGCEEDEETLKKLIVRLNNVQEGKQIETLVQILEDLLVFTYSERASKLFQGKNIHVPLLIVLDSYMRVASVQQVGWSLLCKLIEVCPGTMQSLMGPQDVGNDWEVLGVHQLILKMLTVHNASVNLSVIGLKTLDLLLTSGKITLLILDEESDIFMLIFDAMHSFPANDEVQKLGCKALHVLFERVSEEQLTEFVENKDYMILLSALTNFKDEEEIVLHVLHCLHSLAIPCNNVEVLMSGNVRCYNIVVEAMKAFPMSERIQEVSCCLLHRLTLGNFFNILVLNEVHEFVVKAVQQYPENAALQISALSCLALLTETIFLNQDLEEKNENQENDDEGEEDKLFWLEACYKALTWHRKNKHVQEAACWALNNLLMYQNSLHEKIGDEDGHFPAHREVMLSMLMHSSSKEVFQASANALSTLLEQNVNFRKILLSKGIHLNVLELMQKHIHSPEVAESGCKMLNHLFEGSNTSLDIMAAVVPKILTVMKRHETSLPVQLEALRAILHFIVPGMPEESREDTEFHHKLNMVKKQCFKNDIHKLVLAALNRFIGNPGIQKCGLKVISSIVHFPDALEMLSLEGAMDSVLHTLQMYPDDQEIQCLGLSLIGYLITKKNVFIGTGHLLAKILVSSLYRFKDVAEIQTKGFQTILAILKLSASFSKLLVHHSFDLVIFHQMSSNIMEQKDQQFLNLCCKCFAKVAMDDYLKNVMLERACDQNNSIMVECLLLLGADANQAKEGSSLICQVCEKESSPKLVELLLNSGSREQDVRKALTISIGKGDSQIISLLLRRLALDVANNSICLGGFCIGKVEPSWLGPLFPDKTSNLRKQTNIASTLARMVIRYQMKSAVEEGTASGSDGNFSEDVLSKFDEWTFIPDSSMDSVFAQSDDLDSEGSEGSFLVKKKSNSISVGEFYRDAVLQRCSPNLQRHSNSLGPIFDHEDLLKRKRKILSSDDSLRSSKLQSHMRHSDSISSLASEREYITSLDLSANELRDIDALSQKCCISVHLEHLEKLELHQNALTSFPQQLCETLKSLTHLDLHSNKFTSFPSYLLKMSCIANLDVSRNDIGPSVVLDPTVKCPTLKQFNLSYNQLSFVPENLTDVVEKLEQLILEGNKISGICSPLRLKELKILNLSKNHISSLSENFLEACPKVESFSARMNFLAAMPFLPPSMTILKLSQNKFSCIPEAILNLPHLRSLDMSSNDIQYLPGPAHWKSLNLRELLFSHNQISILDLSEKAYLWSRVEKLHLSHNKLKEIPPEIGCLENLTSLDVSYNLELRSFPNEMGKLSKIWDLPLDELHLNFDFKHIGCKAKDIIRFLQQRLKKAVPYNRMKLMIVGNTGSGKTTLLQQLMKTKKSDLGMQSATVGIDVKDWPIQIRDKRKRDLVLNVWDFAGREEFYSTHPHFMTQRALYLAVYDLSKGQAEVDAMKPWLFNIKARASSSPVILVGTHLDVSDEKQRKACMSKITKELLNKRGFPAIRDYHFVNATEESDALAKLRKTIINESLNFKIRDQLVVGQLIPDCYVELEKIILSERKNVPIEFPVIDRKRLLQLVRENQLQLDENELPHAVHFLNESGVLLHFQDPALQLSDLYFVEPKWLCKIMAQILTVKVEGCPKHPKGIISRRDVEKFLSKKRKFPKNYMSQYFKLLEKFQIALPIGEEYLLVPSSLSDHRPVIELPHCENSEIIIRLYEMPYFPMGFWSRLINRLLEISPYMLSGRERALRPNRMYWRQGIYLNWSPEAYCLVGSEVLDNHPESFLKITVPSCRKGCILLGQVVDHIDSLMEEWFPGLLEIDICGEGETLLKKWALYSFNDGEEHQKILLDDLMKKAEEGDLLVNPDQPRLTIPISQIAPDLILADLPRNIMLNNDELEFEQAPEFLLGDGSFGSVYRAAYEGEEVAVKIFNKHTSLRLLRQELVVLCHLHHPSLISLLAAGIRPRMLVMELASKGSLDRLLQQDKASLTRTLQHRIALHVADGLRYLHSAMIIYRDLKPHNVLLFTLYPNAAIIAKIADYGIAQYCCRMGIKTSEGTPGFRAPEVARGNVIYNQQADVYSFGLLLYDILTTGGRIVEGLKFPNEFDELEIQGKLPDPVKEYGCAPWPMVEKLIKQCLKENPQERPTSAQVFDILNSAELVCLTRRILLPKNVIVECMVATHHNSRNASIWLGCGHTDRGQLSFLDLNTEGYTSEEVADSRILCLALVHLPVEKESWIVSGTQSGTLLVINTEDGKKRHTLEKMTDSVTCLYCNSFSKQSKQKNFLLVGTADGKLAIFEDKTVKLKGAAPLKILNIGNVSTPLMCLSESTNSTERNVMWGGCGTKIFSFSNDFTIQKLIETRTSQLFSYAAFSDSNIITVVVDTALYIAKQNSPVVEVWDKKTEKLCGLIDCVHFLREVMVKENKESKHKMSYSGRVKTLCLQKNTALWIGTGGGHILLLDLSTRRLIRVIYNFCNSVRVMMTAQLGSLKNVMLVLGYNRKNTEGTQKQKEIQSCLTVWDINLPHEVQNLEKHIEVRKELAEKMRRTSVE
row,IC50 [nM],Structure (SMILES)
1,≤ 100,"CCOc1nc(Nc2cn(CCOC)nc2C)nc2[nH]cc(C#N)c12 [Example E48, 4-ethoxy-2-((1-(2-methoxyethyl)-3-methyl-1H-pyrazol-4-yl)-amino)-7H-pyrrolo-[2,3-d]-pyrimidine-5-carbonitrile]"
2,≤ 100,"CCOc1nc(Nc2cnn(C3CN(C4COC4)CCO3)c2Cl)nc2[nH]ccc12 (racemic) [Example E140, (±)-N-(5-chloro-1-(4-(oxetan-3-yl)morpholin-2-yl)-1H-pyrazol-4-yl)-4-ethoxy-7H-pyrrolo [2,3-d]pyrimidin-2-amine]"
3,≤ 100,"CCOc1nc(Nc2cnn(C3CCOC3)c2C)nc2[nH]ccc12 (single isomer, unassigned) [Example E16, 4-ethoxy-N-(5-methyl-1-(tetrahydrofuran-3-yl)-1H-pyrazol-4-yl)-7H-pyrrolo-[2,3-d]-pyrimidin-2-amine]"
4,≤ 100,"CCOc1nc(Nc2cnn([C@H]3CCCN(C4COC4)C3)c2C)nc2[nH]ccc12 [Example E136, (S)-4-ethoxy-N-(5-methyl-1-(1-(oxetan-3-yl)piperidin-3-yl)-1H-pyrazol-4-yl)-7H-pyrrolo[2,3-d]pyrimidin-2-amine]"
5,≤ 100,"CCOc1nc(Nc2cnn(C3CCN(C4COC4)CC3F)c2CC)nc2[nH]ccc12 (single isomer, unassigned) [Example E130, (trans)-4-ethoxy-N-(5-ethyl-1-(3-fluoro-1-(oxetan-3-yl)piperidin-4-yl)-1H-pyrazol-4-yl)-7H-pyrrolo[2,3-d]pyrimidin-2-amine]"
6,≤ 100,"CCOc1nc(Nc2cnn(C(C)(C)C#N)c2C)nc2[nH]ccc12 [Example E96, 2-(4-((4-ethoxy-7H-pyrrolo[2,3-d]pyrimidin-2-yl)amino)-5-methyl-1H-pyrazol-1-yl)-2-methylpropanenitrile]"
7,≤ 100,"CCOc1nc(Nc2cnn([C@@H]3CCO[C@H](C)C3)c2C)nc2[nH]ccc12 (single isomer, unassigned) [Example E42]"
8,≤ 100,"CCOc1nc(Nc2cnn(C3COC3)c2C)nc2[nH]ccc12 [Example E34, 4-ethoxy-N-(5-methyl-1-(oxetan-3-yl)-1H-pyrazol-4-yl)-7H-pyrrolo[2,3-d]pyrimidin-2-amine]"
9,≤ 100,"CCOc1nc(Nc2cnn(CC(C)N3CCOCC3)c2C)nc2[nH]ccc12 (single isomer, unassigned) [Example E92]"
10,≤ 100,"CCOc1nc(Nc2cnn(C3CCC(N4CCOCC4)C3)c2C)nc2[nH]ccc12 (single isomer, unassigned) [Example E108, (trans)-4-ethoxy-N-(5-methyl-1-(3-morpholinocyclopentyl)-1H-pyrazol-4-yl)-7H-pyrrolo[2,3-d]pyrimidin-2-amine]"
11,≤ 100,"CCOc1nc(Nc2cnn(C3CCC(O)C3)c2Cl)nc2[nH]ccc12 (racemic) [Example E101, (±)-trans-3-(5-chloro-4-((4-ethoxy-7H-pyrrolo[2,3-d]pyrimidin-2-yl)amino)-1H-pyrazol-1-yl) cyclopentanol]"
12,≤ 100,"CCOc1nc(Nc2cnn(C3CCN(C4COC4)CC3(F)F)c2Cl)nc2[nH]ccc12 (single isomer, unassigned) [Example E133, N-(5-chloro-1-(3,3-difluoro-1-(oxetan-3-yl)piperidin-4-yl)-1H-pyrazol-4-yl)-4-ethoxy-7H-pyrrolo[2,3-d]pyrimidin-2-amine]"
13,≤ 100,"CCOc1nc(Nc2cnn(C(C)(C)CO)c2C)nc2[nH]ccc12 [Example E65, 2-(4-((4-ethoxy-7H-pyrrolo-[2,3-d]pyrimidin-2-yl)amino)-5-methyl-1H-pyrazol-1-yl)-2-methylpropan-1-ol]"
14,≤ 100,"CCOc1nc(Nc2cnn([C@@H]3CCN(C)C3)c2C)nc2[nH]cc(C#N)c12 [Example E51, (R)-4-ethoxy-2-((5-methyl-1-(1-methyl-pyrrolidin-3-yl)-1H-pyrazol-4-yl)-amino)-7H-pyrrolo-[2,3-d]pyrimidine-5-carbonitrile]"
15,≤ 100,"CCOc1nc(Nc2cnn(C3CC(N4CCOCC4)CCC3(F)F)c2Cl)nc2[nH]ccc12 (single isomer, unassigned) [Example E148, trans-N-(5-chloro-1-(2,2-difluoro-5-morpholinocyclohexyl)-1H-pyrazol-4-yl)-4-ethoxy-7H-pyrrolo[2,3-d]pyrimidin-2-amine]"
16,≤ 100,"CCOc1nc(Nc2cnn(C3CN(C)CC3F)c2C)nc2[nH]ccc12 (single isomer, unassigned) [Example E59, 4-ethoxy-N-(1-(4-fluoro-1-methylpyrrolidin-3-yl)-5-methyl-1H-pyrazol-4-yl)-7H-pyrrolo-[2,3-d]pyrimidin-2-amine]"
17,≤ 100,"CCOc1nc(Nc2cnn(C3CCOCC3)c2C)nc2[nH]cc(C#N)c12 [Example E46, 4-ethoxy-2-((5-methyl-1-(tetrahydro-2H-pyran-4-yl)-1H-pyrazol-4-yl)-amino)-7H-pyrrolo-[2,3-d]-pyrimidine-5-carbonitrile]"
18,≤ 100,"CCOc1nc(Nc2cnn(C3CCCC3(C)O)c2C)nc2[nH]ccc12 (single isomer, unassigned) [Example E77, trans-2-(4-((4-ethoxy-7H-pyrrolo-[2,3-d]pyrimidin-2-yl)amino)-5-methyl-1H-pyrazol-1-yl)-1-methylcyclopentanol]"
19,≤ 100,"CCOc1nc(Nc2cnn(C3CN(C4COC4)CCC3(F)F)c2C)nc2[nH]ccc12 (single isomer, unassigned) [Example E119, N-(1-(4,4-difluoro-1-(oxetan-3-yl)piperidin-3-yl)-5-methyl-1H-pyrazol-4-yl)-4-ethoxy-7H-pyrrolo[2,3-d]pyrimidin-2-amine]"
20,≤ 100,"CCOc1nc(Nc2cnn(CCN3CCOC[C@H]3C)c2C)nc2[nH]ccc12 [Example E81, (R)-4-ethoxy-N-(5-methyl-1-(2-(3-methylmorpholino)ethyl)-1H-pyrazol-4-yl)-7H-pyrrolo [2,3-d]pyrimidin-2-amine]"
21,≤ 100,"CCOc1nc(Nc2cnn(CCF)c2C)nc2[nH]cc(C#N)c12 [Example E50, 4-ethoxy-2-((1-(2-fluoroethyl)-5-methyl-1H-pyrazol-4-yl)-amino)-7H-pyrrolo-[2,3-d]-pyrimidine-5-carbonitrile]"
22,≤ 100,"CCOc1nc(Nc2cnn([C@H]3CC[C@@H](O)CC3)c2C)nc2[nH]ccc12 [Example E54, cis-4-(4-((4-ethoxy-7H-pyrrolo[2,3-d]pyrimidin-2-yl)amino)-5-methyl-1H-pyrazol-1-yl)-cyclohexanol]"
23,≤ 100,"CCOc1nc(Nc2cnn(C3CN(C4COC4)CCC3(F)F)c2Cl)nc2[nH]ccc12 (single isomer, unassigned) [Example E123, N-(5-chloro-1-(4,4-difluoro-1-(oxetan-3-yl)piperidin-3-yl)-1H-pyrazol-4-yl)-4-ethoxy-7H-pyrrolo[2,3-d]pyrimidin-2-amine]"
24,≤ 100,"CCOc1nc(Nc2cnn(C3CCCC3O)c2Cl)nc2[nH]ccc12 (racemic) [Example E36, (±)-2-(5-chloro-4-((4-ethoxy-7H-pyrrolo-[2,3-d]-pyrimidin-2-yl)amino)-1H-pyrazol-1-yl)cyclopentanol]"
25,≤ 100,"CCOc1nc(Nc2cnn(C3CCN(C4COC4)CC3(C)F)c2C)nc2[nH]ccc12 (single isomer, unassigned) [Example E138, (4-ethoxy-7H-pyrrolo[2,3-d]pyrimidin-2-yl)-[1-(3-fluoro-3-methyl-1-oxetan-3-yl-piperidin-4-yl)-5-methyl-1H-pyrazol-4-yl]-amine]"
26,≤ 100,"CCOc1nc(Nc2cnn(C3CCCOC3)c2C)nc2[nH]ccc12 (single isomer, unassigned) [Example E30, 4-ethoxy-N-(5-methyl-1-(tetrahydro-2H-pyran-3-yl)-1H-pyrazol-4-yl)-7H-pyrrolo-[2,3-d]pyrimidin-2-amine]"
27,≤ 100,"CCOc1nc(Nc2cn(CCOC)nc2C)nc2[nH]ccc12 [Example E8, 4-ethoxy-N-(1-(2-methoxyethyl)-3-methyl-1H-pyrazol-4-yl)-7H-pyrrolo-[2,3-d]-pyrimidin-2-amine]"
28,≤ 100,"CCOc1nc(Nc2cnn(C3CCOCC3)c2C)nc2[nH]ccc12 [Example E11, 4-ethoxy-N-(5-methyl-1-(tetrahydro-2H-pyran-4-yl)-1H-pyrazol-4-yl)-7H-pyrrolo-[2,3-d]-pyrimidin-2-amine]"
